Assay in all cases: biochemical
Holding throughout (parameters): Eurofins recombinant human kinase profiling, remaining kinase activity as % of control, 10 uM ATP
What all share (conditions): ATP 10 uM; read-out: %Ctrl@10 μM

One experiment deals with MAP4K5(h) (Homo sapiens, UniProt Q9Y4K4). The text has this: (§1) To rapidly determine the biological target of YL-939, we first tested the activity of YL-939 against a panel of 401 recombinant human protein kinases by using the kinase profiling assay provided by Eurofins, since kinases are often the key components in various signal pathways[35],[36]. […] We then carried out affinity-based proteome profiling assay (ABPP) coupled with bioimaging to identify the biological target of YL-939 (Fig. 4A). To this end, we designed and synthesized a photoaffinity probe, YL-939-1 (Fig. 4A and Supplementary Fig. 5), which is YL-939 attached by a photo-crosslinker (L3) that contains a photo-reactive group diazirine and a clickable alkyne handle.

The target in the next experiment is T1, BRK(h) (Homo sapiens, UniProt Q13882).
T1 construct: gene PTK6
T1 sequence (Q13882 whole entry): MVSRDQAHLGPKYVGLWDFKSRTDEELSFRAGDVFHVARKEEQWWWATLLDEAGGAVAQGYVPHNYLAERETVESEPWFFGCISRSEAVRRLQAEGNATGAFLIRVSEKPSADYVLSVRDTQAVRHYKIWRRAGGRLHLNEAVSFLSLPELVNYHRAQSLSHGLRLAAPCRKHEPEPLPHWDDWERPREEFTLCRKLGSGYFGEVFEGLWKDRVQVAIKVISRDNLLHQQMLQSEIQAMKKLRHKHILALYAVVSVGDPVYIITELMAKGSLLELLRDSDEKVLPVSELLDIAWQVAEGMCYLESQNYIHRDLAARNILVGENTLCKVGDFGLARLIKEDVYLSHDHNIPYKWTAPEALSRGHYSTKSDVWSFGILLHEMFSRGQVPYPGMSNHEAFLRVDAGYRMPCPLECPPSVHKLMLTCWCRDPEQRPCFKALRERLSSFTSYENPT
Source text: as §1

A further experiment deals with WNK4(h) (Homo sapiens, UniProt Q96J92).
Source text: as §1

Experiment [1] has as its target T2, PI3 Kinase (p110(E542K)/p85)(h) (Homo sapiens, UniProt P42336, E542K).
T2 construct: gene PIK3CA
Source text: as §1

A further experiment deals with TYK2(h) (Homo sapiens, UniProt P29597).
Source text: as §1

The next experiment concerns the target T3, PDGFRα(D842V)(h) (Homo sapiens, UniProt P16234, D842V).
T3 construct: gene PDGFRA
Source text: as §1

A further experiment addresses T4, Src(1-530)(h) (Homo sapiens, UniProt P12931).
T4 construct: residues 1-530
Source text: as §1

The target of another experiment is FGFR2(h) (Homo sapiens, UniProt P21802).
Source text: as §1

A further experiment addresses PAK1(h) (Homo sapiens, UniProt Q13153).
Source text: as §1

Another experiment has as its target T5, MST1(h) (Homo sapiens, UniProt Q13043).
T5 construct: gene STK4
Source text: as §1

The next experiment deals with Fer(h) (Homo sapiens, UniProt P16591).
Source text: as §1

In the next experiment the target is Plk3(h) (Homo sapiens, UniProt Q9H4B4).
Sequence of Plk3(h) (Q9H4B4 whole entry): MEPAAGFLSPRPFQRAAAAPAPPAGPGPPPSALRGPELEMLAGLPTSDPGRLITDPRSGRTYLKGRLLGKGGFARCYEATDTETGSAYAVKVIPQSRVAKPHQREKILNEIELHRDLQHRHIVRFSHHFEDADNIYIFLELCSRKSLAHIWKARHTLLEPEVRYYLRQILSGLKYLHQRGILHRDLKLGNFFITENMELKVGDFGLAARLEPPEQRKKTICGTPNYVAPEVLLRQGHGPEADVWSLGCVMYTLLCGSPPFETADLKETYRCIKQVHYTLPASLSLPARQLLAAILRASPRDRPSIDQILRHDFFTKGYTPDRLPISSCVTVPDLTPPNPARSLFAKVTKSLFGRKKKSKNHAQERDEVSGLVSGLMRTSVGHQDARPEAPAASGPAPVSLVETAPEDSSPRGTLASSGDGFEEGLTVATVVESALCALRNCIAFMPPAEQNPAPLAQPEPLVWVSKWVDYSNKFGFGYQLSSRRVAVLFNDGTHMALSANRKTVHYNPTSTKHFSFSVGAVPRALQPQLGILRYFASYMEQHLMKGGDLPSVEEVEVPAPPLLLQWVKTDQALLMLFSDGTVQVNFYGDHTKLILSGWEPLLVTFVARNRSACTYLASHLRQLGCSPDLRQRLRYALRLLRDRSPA
Source text: as §1

The target of the next experiment is T6, PRK2(h) (Homo sapiens, UniProt Q16513).
T6 construct: gene PKN2
T6 sequence (Q16513 whole entry): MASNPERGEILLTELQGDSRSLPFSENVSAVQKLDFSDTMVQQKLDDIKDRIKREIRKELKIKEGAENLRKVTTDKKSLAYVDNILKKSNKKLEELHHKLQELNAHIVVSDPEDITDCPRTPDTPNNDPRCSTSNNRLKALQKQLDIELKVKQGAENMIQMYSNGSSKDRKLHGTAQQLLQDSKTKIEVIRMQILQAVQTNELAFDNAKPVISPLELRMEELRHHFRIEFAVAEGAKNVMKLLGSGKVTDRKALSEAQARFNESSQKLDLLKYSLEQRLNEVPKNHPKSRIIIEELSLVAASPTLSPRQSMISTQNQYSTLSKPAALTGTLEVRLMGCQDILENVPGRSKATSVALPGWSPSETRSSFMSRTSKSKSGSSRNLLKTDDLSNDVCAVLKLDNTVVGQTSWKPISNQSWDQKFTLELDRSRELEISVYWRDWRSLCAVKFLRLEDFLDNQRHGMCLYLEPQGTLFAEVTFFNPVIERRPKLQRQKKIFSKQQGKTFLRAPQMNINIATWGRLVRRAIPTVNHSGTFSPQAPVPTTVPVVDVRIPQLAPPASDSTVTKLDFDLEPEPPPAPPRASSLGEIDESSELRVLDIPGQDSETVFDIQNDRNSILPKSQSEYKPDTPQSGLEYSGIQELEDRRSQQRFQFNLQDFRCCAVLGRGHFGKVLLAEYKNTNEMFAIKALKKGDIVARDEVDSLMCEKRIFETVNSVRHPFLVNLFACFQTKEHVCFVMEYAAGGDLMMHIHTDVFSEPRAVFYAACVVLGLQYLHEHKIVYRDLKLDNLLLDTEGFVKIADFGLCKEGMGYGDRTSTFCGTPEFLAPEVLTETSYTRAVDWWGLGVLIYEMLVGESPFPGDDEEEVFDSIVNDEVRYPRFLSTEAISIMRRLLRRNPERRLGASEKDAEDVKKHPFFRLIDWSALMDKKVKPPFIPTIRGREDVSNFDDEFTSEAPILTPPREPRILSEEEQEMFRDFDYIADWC
Source text: as §1

The target of a further experiment is T7, MSK1(h) (Homo sapiens, UniProt O75582).
T7 construct: gene RPS6KA5
T7 sequence (O75582 whole entry): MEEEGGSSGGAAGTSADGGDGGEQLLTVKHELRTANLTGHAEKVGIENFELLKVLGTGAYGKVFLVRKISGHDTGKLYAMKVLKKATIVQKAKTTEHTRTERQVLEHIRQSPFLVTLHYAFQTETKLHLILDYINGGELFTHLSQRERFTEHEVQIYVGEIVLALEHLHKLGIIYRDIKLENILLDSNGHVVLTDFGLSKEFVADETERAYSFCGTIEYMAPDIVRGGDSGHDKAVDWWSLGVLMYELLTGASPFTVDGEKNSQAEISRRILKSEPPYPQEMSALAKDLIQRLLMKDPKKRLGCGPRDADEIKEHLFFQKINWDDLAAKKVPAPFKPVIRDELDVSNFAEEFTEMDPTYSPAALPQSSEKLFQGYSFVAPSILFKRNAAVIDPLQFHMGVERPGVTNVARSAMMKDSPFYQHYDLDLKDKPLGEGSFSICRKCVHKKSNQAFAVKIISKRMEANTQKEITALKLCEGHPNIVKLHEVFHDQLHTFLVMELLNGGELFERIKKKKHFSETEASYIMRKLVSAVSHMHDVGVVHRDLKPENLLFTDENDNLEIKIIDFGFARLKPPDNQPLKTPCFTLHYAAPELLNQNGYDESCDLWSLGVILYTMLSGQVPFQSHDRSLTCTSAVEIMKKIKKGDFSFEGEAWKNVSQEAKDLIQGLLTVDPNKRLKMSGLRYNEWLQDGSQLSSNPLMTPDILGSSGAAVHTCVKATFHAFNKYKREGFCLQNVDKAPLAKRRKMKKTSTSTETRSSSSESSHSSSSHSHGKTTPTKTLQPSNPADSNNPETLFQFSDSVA
Source text: as §1

The target in a further experiment is T8, CK1γ3(h) (Homo sapiens, UniProt Q9Y6M4).
T8 construct: gene CSNK1G3
Source text: as §1

Another experiment deals with T9, PhKγ2(h) (Homo sapiens, UniProt P15735).
T9 construct: gene PHKG2
Source text: as §1

The target in a further experiment is T10, ROCK-II(h) (Homo sapiens, UniProt O75116).
T10 construct: gene ROCK2
Source text: as §1

For another experiment, the target named is BMPR2(h) (Homo sapiens, UniProt Q13873).
Source text: as §1

The target in a further experiment is T11, ARK5(h) (Homo sapiens, UniProt O60285).
T11 construct: gene NUAK1
T11 sequence (O60285 whole entry): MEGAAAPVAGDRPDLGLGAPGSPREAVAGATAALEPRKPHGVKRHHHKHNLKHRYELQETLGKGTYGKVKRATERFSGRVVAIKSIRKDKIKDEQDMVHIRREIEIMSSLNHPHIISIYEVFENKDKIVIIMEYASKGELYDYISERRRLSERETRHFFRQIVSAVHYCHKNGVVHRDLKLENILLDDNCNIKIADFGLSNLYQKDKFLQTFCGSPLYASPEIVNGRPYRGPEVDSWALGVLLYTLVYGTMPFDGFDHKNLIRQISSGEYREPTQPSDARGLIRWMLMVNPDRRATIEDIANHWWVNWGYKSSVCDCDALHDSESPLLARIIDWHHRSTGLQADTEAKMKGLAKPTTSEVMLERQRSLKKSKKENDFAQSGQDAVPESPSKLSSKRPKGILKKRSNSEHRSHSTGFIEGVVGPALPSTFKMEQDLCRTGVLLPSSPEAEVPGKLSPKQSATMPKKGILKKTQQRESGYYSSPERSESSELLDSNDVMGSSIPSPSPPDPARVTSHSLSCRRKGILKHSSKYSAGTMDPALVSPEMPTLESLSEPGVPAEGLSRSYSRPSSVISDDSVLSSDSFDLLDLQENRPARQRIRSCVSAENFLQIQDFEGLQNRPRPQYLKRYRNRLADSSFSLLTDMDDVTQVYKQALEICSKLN
Source text: as §1

The target of a further experiment is ULK2(h) (Homo sapiens, UniProt Q8IYT8).
Source text: as §1

The target in a further experiment is EphB4(h) (Homo sapiens, UniProt P54760).
Sequence of EphB4(h) (P54760 whole entry): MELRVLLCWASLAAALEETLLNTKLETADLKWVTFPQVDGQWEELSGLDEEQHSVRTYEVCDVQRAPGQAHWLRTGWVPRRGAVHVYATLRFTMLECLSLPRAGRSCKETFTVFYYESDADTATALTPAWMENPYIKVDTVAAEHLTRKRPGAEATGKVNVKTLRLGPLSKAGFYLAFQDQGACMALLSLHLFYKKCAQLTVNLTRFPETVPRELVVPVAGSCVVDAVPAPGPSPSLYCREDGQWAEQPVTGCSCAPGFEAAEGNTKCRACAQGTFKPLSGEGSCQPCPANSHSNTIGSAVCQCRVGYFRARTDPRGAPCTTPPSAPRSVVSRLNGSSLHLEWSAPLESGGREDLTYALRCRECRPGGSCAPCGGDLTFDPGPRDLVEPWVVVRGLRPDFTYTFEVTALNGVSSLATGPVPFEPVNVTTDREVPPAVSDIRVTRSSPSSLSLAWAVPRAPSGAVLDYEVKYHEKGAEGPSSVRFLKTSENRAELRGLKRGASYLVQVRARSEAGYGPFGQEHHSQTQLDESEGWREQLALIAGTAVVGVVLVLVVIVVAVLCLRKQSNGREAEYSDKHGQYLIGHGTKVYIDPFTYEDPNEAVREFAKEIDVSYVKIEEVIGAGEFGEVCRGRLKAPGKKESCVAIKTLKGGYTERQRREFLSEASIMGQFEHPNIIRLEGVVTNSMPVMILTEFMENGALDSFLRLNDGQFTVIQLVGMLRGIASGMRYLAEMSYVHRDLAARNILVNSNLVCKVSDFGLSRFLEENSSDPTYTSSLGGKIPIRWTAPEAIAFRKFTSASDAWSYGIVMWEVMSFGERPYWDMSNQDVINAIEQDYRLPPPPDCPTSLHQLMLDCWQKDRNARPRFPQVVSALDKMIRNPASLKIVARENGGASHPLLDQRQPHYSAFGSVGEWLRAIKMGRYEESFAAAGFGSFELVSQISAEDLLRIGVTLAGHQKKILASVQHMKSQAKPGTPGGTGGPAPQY
Source text: as §1

The target of another experiment is T12, AMPKα2(h) (Homo sapiens, UniProt P54646).
T12 construct: gene PRKAA2
Source text: as §1

Sequence of PAK1(h) (Q13153 whole entry): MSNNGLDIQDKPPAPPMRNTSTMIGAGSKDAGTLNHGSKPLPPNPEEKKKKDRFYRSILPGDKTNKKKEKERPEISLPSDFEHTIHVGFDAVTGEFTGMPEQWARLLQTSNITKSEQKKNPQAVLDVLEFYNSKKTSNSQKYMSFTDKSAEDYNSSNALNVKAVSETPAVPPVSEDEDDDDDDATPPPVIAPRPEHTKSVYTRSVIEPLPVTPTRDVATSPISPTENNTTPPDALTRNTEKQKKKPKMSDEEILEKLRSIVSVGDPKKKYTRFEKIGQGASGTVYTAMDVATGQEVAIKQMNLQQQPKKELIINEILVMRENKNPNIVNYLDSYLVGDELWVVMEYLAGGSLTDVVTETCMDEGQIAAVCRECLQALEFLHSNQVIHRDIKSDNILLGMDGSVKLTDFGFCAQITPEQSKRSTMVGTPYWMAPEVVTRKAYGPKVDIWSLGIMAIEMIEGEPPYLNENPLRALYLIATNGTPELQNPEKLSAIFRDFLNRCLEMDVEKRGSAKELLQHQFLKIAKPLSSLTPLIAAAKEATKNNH

On to `C1=C(c2nc(-c3cnn(C4CCNCC4)c3)cn3cc(-c4ccccc4)nc23)CCOC1` [YL-939], for which the remaining activity at 10 µM at MAP4K5(h) was found to be 76%; on BRK(h) it was 109%; on WNK4(h), 102%; in experiment [1] it was 99%; at TYK2(h), 95%; at PDGFRα(D842V)(h) it was 113%. Moreover, the remaining activity at 10 µM on Src(1-530)(h) worked out at 85%; on FGFR2(h) it was 95%; at PAK1(h) it was 85%; at MST1(h), 91%; on Fer(h), 86%; at Plk3(h), 103%. Besides, the remaining activity at 10 µM came out at 89% on PRK2(h); 79% at MSK1(h); 102% on CK1γ3(h); 68% on PhKγ2(h); 89% on ROCK-II(h); 99% on BMPR2(h). Moreover, the remaining activity at 10 µM is 93% on ARK5(h), 77% at ULK2(h), 97% on EphB4(h) and 100% at AMPKα2(h).

The values above are taken from publication PMC9719519, “Non-classical ferroptosis inhibition by a small molecule targeting PHB2” (Nature Communications, 2022).
